# Biological target: human HPK1 (MAP4K1) (Homo sapiens (Human), UniProt Q92918)
# Test: HPK1 IC50 Assay (TR-FRET peptide phosphorylation)
# Assay type: biochemical
# Conditions: 0.15 nM HPK1, 10 μM ATP, 1 μM STK S1 peptide substrate; geometric mean
# Method in brief: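 Pre-activated, dually phosphorylated baculovirus-expressed HPK1 kinase domain (0.15 nM) preincubated 15 min with compound, then reacted 3 h at 25° C with 10 μM ATP and 1 μM STK S1 peptide in BES pH 7.0 buffer. Phosphopeptide read by TR-FRET (665/620 nm); four-parameter fit, geometric-mean IC50.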
# Chain of human HPK1 (MAP4K1) (Q92918 17-274): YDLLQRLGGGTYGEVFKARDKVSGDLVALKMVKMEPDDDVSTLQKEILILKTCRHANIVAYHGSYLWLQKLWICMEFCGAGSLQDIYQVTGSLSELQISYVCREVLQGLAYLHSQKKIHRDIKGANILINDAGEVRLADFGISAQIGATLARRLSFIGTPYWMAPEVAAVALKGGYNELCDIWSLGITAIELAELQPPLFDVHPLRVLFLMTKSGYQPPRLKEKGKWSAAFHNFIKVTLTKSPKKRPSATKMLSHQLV
row,IC50 [nM],Compound
1,0.07,"CNC(=O)c1cc(Nc2nc(-c3cnc4c(c3)N([C@H]3C[C@@](C)(N5CCCCC5)C3)C(=O)C4(C)C)cc3ncn(C(C)C)c23)c(F)c(F)c1Cl [Example 281, 2-chloro-5-((6-(3,3-dimethyl-1-((1s,3s)-3-methyl-3-(piperidin-1-yl)cyclobutyl)-2-oxo-2,3-dihydro-1H-pyrrolo[3,2-b]pyridin-6-yl)-3-isopropyl-3H-imidazo[4,5-c]pyridin-4-yl)amino)-3,4-difluoro-N-methylbenzamide]"
2,0.09,"CCNC(=O)c1cc(Nc2nc(-c3cnc4c(c3)N([C@H]3C[C@@](C)(N5CCCC6(CC6)C5)C3)C(=O)C4(C)C)cc3ncn(C(C)C)c23)c(F)c(F)c1Cl [Example 283, 2-chloro-5-((6-(3,3-dimethyl-1-((1s,3s)-3-methyl-3-(5-azaspiro[2.5]octan-5-yl)cyclobutyl)-2-oxo-2,3-dihydro-1H-pyrrolo[3,2-b]pyridin-6-yl)-3-isopropyl-3H-imidazo[4,5-c]pyridin-4-yl)amino)-N-ethyl-3,4-difluorobenzamide]"
3,0.09,"CC(C)n1cnc2cc(-c3cc4c(nc3F)C(C)(C)C(=O)N4[C@H]3C[C@@](C)(N4CCCCC4)C3)nc(Nc3cc(C(=O)NCC(F)F)c(Cl)c(F)c3F)c21 [Example 272, 2-chloro-N-(2,2-difluoroethyl)-3,4-difluoro-5-((6-(5-fluoro-3,3-dimethyl-1-((1s,3s)-3-methyl-3-(piperidin-1-yl)cyclobutyl)-2-oxo-2,3-dihydro-1H-pyrrolo[3,2-b]pyridin-6-yl)-3-isopropyl-3H-imidazo[4,5-c]pyridin-4-yl)amino)benzamide]"

# Same assay, conditions: recombinant HPK1 kinase domain 0.15 nM, 10 μM ATP, 1 μM STK S1 peptide; geometric mean of multiple experiments
row,IC50 [nM],Compound
1,0.1,CNC(=O)c1cc(Nc2nc(-c3ccc4c(c3)N([C@H]3C[C@@H](N5CCCCC5)C3)C(=O)C43CCN(C(=O)C4(C)COC4)CC3)cc3ncn(C4CC4)c23)ccc1C [Example 85]
2,0.1,CNC(=O)c1cc(Nc2nc(-c3ccc4c(c3)N([C@H]3C[C@@H](N5CCCCC5)C3)C(=O)C4(C)O)cc3ncn(C(C)C)c23)ccc1Cl (some centres unmarked) [Example 63]
3,0.2,"CNC(=O)c1cc(Nc2nc(-c3ccc4c(c3)N(C3CC(N5CC[C@H](C(F)F)C5)C3)C(=O)C4(C)C)cc3ncn(C(C)C)c23)ccc1C (some centres unmarked) [Example 104A, 5-((6-(1-((1s,3s)-3-(3-(difluoromethyl)pyrrolidin-1-yl)cyclobutyl)-3,3-dimethyl-2-oxoindolin-6-yl)-3-isopropyl-3H-imidazo[4,5-c]pyridin-4-yl)amino)-N,2-dimethylbenzamide]"
4,0.06,CNC(=O)c1cc(Nc2nc(-c3ccc4c(c3)N([C@H]3C[C@@H](N5C[C@H]6CC[C@@H]5C6)C3)C(=O)C43CCN(C(=O)C4COC4)CC3)cc3ncn(C4CC4)c23)ccc1C [Example 42]
5,0.2,CNC(=O)c1cc(Oc2nc(-c3ccc4c(c3)N([C@H]3C[C@@H](N5CCC(C)(C)C5)C3)C(=O)C43CCN(C(C)=O)CC3)cc3ncn(C(C)C)c23)ccc1C [Example 181]
6,0.1,Cc1ccc(Nc2nc(-c3ccc4c(c3)N([C@H]3C[C@@H](N5CCOC(C)(C)C5)C3)C(=O)C4(C)C)cc3ncn(C4CC4)c23)cc1C(N)=O [Example 16]
7,0.08,Cc1ccc(Nc2nc(-c3ccc4c(c3)N([C@H]3C[C@@H](N5CCCCC5)C3)C(=O)C43CCOCC3)cc3ncn(C(C)C)c23)cc1C(=O)NC1(C(F)F)CC1 [Example 32]
8,0.06,CNC(=O)c1cc(Nc2nc(-c3ccc4c(c3)N([C@H]3C[C@@H](N5CCCCC5)C3)C(=O)C43CCN(C(=O)C4CCC4)CC3)cc3ncn(C4CC4)c23)ccc1C [Example 155]

# Further lines, the compound ahead of its results:
row,Compound,IC50 [nM]
1,"CC(C)n1cnc2cc(-c3cnc4c(c3)N([C@H]3C[C@@](C)(N5CCCCCC5)C3)C(=O)C4(C)C)nc(Nc3cc(C(=O)NC4(CF)CC4)c(Cl)c(F)c3F)c21 [Example 249, 5-((6-(1-((1s,3s)-3-(azepan-1-yl)-3-methylcyclobutyl)-3,3-dimethyl-2-oxo-2,3-dihydro-1H-pyrrolo[3,2-b]pyridin-6-yl)-3-isopropyl-3H-imidazo[4,5-c]pyridin-4-yl)amino)-2-chloro-3,4-difluoro-N-(1-(fluoromethyl)cyclopropyl)benzamide]",0.04
2,"Cc1ccc(Nc2nc(-c3ccc4c(c3)N([C@H]3C[C@@H](N5CCCCC5)C3)C(=O)C4(C)C)cc3ncn(C(C)C)c23)cc1C(=O)NC(C)C(F)F (some centres unmarked) [Example 21, N-(1,1-difluoropropan-2-yl)-5-((6-(3,3-dimethyl-2-oxo-1-((1s,3s)-3-(piperidin-1-yl)cyclobutyl)indolin-6-yl)-3-isopropyl-3H-imidazo[4,5-c]pyridin-4-yl)amino)-2-methylbenzamide]",0.05
3,Cc1ccc(Nc2nc(-c3ccc4c(c3)N([C@H]3C[C@@H](N5CCCCC5)C3)C(=O)C4(C)C)cc3ncn(C4CC4)c23)cc1C(N)=O [Example 112],0.09
4,COCCNC(=O)c1cc(Nc2nc(-c3ccc4c(c3)N([C@H]3C[C@@H](N5CCCCC5)C3)C(=O)C43CCN(C(C)=O)CC3)cc3ncn(C(C)C)c23)c(F)cc1C [Example 86],0.2
5,"Cc1c(C(=O)NC2(C(F)F)CC2)cc(Nc2nc(-c3cnc4c(c3)N([C@H]3C[C@@](C)(N5CCOC(C)(C)C5)C3)C(=O)C4(C)C)cc3ncn(C(C)C)c23)c(F)c1F [Example 188, N-(1-(Difluoromethyl)cyclopropyl)-5-((6-(1-((1s,3s)-3-(2,2-dimethylmorpholino)-3-methylcyclobutyl)-3,3-dimethyl-2-oxo-2,3-dihydro-1H-pyrrolo[3,2-b]pyridin-6-yl)-3-isopropyl-3H-imidazo[4,5-c]pyridin-4-yl)amino)-3,4-difluoro-2-methylbenzamide]",0.4
6,"CNC(=O)c1cc(Nc2nc(-c3ccc4c(c3)N(C3CC(N5CCC[C@H](C(F)F)C5)C3)C(=O)C4(C)C)cc3ncn(C(C)C)c23)ccc1C (some centres unmarked) [Example 105A, 5-((6-(1-((1s,3s)-3-(3-(difluoromethyl)piperidin-1-yl)cyclobutyl)-3,3-dimethyl-2-oxoindolin-6-yl)-3-isopropyl-3H-imidazo[4,5-c]pyridin-4-yl)amino)-N,2-dimethylbenzamide]",0.2
7,"Cc1c(F)c(Nc2nc(-c3cnc4c(c3)N([C@H]3C[C@@](C)(N5CCCCC5)C3)C(=O)C4(C)C)cc3ncn(C(C)C)c23)cc(C(=O)NC2(C(F)F)CC2)c1Cl [Example 264, 2-chloro-N-(1-(difluoromethyl)cyclopropyl)-5-((6-(3,3-dimethyl-1-((1s,3s)-3-methyl-3-(piperidin-1-yl)cyclobutyl)-2-oxo-2,3-dihydro-1H-pyrrolo[3,2-b]pyridin-6-yl)-3-isopropyl-3H-imidazo[4,5-c]pyridin-4-yl)amino)-4-fluoro-3-methylbenzamide]",0.2
8,CC(=O)N1CCC2(CC1)C(=O)N([C@H]1C[C@@H](N3C4CCC3COC4)C1)c1cc(-c3cc4ncn(C(C)C)c4c(Nc4cc(C(=O)NC(C)C)c(C)cc4F)n3)ccc12 [Example 77],0.06
9,"CC(C)n1cnc2cc(-c3cnc4c(c3)N([C@H]3C[C@@](C)(N5CCCCC5)C3)C(=O)C4(C)C)nc(Nc3cc(C(=O)NC4(C(F)F)CC4)c(Cl)c(F)c3F)c21 [Example 207, 2-Chloro-N-(1-(difluoromethyl)cyclopropyl)-5-((6-(3,3-dimethyl-1-((1s,3s)-3-methyl-3-(piperidin-1-yl)cyclobutyl)-2-oxo-2,3-dihydro-1H-pyrrolo[3,2-b]pyridin-6-yl)-3-isopropyl-3H-imidazo[4,5-c]pyridin-4-yl)amino)-3,4-difluorobenzamide]",0.08
10,Cc1c(C(=O)NC2(C(F)F)CC2)cc(Nc2nc(-c3ccc4c(c3)N([C@H]3C[C@@H](N5CCCCC5)C3)C(=O)C4(C)C)cc3ncn(C(C)C)c23)c(F)c1F [Example 144],0.07
11,"Cc1cc(F)c(Nc2nc(-c3cnc4c(c3)N([C@H]3C[C@@](C)(N5CCCCC5)C3)C(=O)C43CCOCC3)cc3ncn(C(C)C)c23)cc1C(=O)NC1(C(F)F)CC1 [Example 206, N-(1-(Difluoromethyl)cyclopropyl)-4-fluoro-5-((3-isopropyl-6-(1′-((1s,3s)-3-methyl-3-(piperidin-1-yl)cyclobutyl)-2′-oxo-1′,2,2′,3,5,6-hexahydrospiro[pyran-4,3′-pyrrolo[3,2-b]pyridin]-6′-yl)-3H-imidazo[4,5-c]pyridin-4-yl)amino)-2-methylbenzamide]",0.07
12,"CC(C)n1cnc2cc(-c3cnc4c(c3)N([C@H]3C[C@@H](N5CCCCC5)C3)C(=O)C4(C)C)nc(Nc3cc(C(=O)NC4(C(F)F)CC4)c(Cl)c(F)c3F)c21 [Example 245, 2-chloro-N-(1-(difluoromethyl)cyclopropyl)-5-((6-(3,3-dimethyl-2-oxo-1-((1s,3s)-3-(piperidin-1-yl)cyclobutyl)-2,3-dihydro-1H-pyrrolo[3,2-b]pyridin-6-yl)-3-isopropyl-3H-imidazo[4,5-c]pyridin-4-yl)amino)-3,4-difluorobenzamide]",0.1
13,Cc1ccc(Nc2nc(-c3ccc4c(c3)N([C@H]3C[C@@H](N5CCCCC5)C3)C(=O)C4(C)C)cc3ncn(C(C)C)c23)cc1C(=O)NC(CF)CF [Example 31],0.08
14,"Cc1ccc(Nc2nc(-c3ccc4c(c3)N([C@H]3C[C@@H](N5CCCCC5)C3)C(=O)C4(C)C)cc3ncn(C(C)C)c23)cc1C(=O)N[C@@H](C)C(F)F [Example 21A, N-(1,1-difluoropropan-2-yl)-5-((6-(3,3-dimethyl-2-oxo-1-((1s,3s)-3-(piperidin-1-yl)cyclobutyl)indolin-6-yl)-3-isopropyl-3H-imidazo[4,5-c]pyridin-4-yl)amino)-2-methylbenzamide]",0.07
15,CNC(=O)c1cc(Nc2nc(-c3ccc4c(c3)N([C@H]3C[C@@H](N5CC[C@@H](F)C5)C3)C(=O)C4(C)C)cc3ncn(C(C)C)c23)c(F)cc1C [Example 108],0.1

# — patent US11203591B2, “Substituted 6-azabenzimidazole compounds” (Gilead Sciences, Inc., priority 2018, dated 2021)
